Earlier results in patent EP4817601A1, “NANOPARTICLES COMPRISING SIROLIMUS AND ALBUMIN, PHARMACEUTICAL COMPOSITION FOR SUBCUTANEOUS ADMINISTRATION, COMPRISING SAME, AND PREPARATION METHOD THEREFOR” (SNBioscience Inc., priority 2023, dated 2025).

Conditions: poorly soluble drug; background statement

Structure (SMILES): CO[C@H]1C[C@@H]2CC[C@@H](C)[C@@](O)(O2)C(=O)C(=O)N2CCCC[C@H]2C(=O)O[C@H]([C@H](C)C[C@@H]2CC[C@@H](O)[C@H](OC)C2)CC(=O)[C@H](C)/C=C(\C)[C@@H](O)[C@@H](OC)C(=O)[C@H](C)C[C@H](C)/C=C/C=C/C=C/1C [Sirolimus]
- bioavailability (BA): 14%
